Tests used:
[1] = biological target: T1, Human androgen receptor (HAR) (Homo sapiens, UniProt P10275); test: Relative bond affinity (RBA), recombinant human androgen receptor, charcoal dextran technique; assay type: binding; conditions: 24 h at 0° C., Testosterone = 100
T1 construct: made in house; host or cells: SF9 insect cells (baculovirus), lysate supernatant
T1 sequence (P10275 1-920): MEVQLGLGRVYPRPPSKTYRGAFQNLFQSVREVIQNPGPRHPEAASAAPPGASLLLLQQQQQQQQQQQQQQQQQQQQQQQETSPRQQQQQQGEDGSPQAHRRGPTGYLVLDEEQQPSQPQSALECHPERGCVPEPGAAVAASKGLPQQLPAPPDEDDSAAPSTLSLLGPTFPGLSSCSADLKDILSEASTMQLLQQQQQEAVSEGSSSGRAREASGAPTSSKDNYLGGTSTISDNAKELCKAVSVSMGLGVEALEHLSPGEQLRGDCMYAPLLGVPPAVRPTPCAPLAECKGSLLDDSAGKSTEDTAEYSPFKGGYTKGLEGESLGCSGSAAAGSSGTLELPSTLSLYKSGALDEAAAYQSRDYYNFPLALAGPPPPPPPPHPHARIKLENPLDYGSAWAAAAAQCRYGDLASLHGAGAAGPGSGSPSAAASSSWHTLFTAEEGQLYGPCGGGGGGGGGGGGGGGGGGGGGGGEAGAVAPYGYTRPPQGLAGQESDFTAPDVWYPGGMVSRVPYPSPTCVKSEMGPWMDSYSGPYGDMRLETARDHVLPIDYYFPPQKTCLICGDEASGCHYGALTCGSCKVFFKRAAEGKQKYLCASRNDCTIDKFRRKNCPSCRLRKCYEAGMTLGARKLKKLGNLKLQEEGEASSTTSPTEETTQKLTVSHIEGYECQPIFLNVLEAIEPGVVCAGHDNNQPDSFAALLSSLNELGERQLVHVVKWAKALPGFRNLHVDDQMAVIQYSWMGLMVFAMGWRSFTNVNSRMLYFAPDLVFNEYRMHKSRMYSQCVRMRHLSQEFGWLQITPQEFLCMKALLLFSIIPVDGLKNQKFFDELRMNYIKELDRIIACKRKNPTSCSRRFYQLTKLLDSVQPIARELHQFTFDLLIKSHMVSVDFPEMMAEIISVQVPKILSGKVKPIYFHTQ
Description: (§1) The human recombinant receptor (HGR, HPR, HAR, HMR, HER) was used.
Human androgen receptor (HAR)
(§2) A supernatant of SF9 cells containing the recombinant human androgen receptor was obtained by the process described above for the progestogen receptor using the cDNA fragment containing the region coding for the human androgen receptor. The cells obtained were lysed in the lysis buffer (3). The supernatant was incubated at 0° C. for an incubation time of 24 hours with a constant concentration (T) of tritiated testosterone in the presence of increasing concentrations of either unlabelled testosterone (0 to 1000×10^-9 M), or the unlabelled product to be tested (1 to 25000×10^-9 M). The concentration of bound tritiated testosterone (B) was then measured in each incubate using the charcoal dextran adsorption technique.
(§3) Calculation of the relative bond affinity (RBA).
(§4) The following two curves were drawn: the percentage of bound tritiated hormone B/BO as a function of the logarithm of the concentration of unlabelled reference hormone or as a function of the logarithm of the concentration of unlabelled test product. The straight line of the following equation was determined: […]
(§5) The relative bond affinity (RBA) of the test product was determined by the equation: […]

[2] = biological target: T2, Human mineralocorticoid receptor (HMR) (Homo sapiens, UniProt P08235); test: Relative bond affinity (RBA), recombinant human mineralocorticoid receptor, charcoal dextran technique; assay type: binding; conditions: 24 h at 0° C.; Aldosterone = 100
T2 construct: made in house; host or cells: SF9 insect cells (baculovirus), lysate supernatant
T2 sequence (P08235 1-984): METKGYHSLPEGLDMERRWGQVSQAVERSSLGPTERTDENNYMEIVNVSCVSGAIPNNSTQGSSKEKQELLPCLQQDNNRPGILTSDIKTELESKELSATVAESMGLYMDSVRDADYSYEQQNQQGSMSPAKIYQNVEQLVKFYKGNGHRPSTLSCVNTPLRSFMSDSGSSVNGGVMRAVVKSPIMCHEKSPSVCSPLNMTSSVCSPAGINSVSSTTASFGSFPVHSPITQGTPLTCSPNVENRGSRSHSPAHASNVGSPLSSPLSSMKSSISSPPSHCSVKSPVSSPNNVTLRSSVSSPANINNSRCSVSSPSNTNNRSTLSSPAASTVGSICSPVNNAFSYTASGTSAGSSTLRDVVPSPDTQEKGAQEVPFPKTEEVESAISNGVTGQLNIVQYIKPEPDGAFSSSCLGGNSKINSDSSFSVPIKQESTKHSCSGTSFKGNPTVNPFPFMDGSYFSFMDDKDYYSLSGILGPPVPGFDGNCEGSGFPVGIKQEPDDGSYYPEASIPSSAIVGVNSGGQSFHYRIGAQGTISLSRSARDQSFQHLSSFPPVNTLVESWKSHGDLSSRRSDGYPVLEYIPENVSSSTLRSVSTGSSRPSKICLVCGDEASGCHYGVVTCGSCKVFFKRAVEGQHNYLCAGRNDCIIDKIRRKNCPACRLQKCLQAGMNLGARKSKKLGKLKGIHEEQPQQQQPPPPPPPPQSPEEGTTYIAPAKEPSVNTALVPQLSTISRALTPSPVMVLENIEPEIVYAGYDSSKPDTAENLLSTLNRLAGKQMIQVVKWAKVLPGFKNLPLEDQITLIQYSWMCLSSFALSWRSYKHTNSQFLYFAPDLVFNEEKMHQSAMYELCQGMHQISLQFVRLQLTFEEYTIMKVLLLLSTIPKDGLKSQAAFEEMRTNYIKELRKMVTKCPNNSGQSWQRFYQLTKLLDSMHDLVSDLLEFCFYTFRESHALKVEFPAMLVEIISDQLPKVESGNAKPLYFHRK
From the text: as §1
Human mineralocorticoid receptor (HMR):
as §2, with “mineralocorticoid” for “androgen”, “according to” for “by”, “fragment described by Baulieu et al (Proc. Natl. Acad. Sci., (1991), Vol. 88, p. 10681-10685)” for “fragment”, “(4).” for “(3).”, “for” for “for an incubation time of”, “aldosterone” for “testosterone”
as §3, §4, §5

C[C@H](O)C(=O)[C@@]1(C)CC[C@H]2[C@@H]3C[C@@H](O)C4=CC(=O)CCC4=C3CC[C@@]21C [Product B, [6β, 17β-(S)]-6-hydroxy-17-(2-hydroxy-1-oxopropyl)-17-methyl-Δ^4,9-estradiene-3-one]
RBA, Human androgen receptor [1]: 0
RBA, Human androgen receptor ([1]; listed as product B): no or negligible RBA's
RBA, Human mineralocorticoid receptor [2]: no or negligible RBA's

Reference: patent US5834452A, “1- or 6-hydroxylated steroids” (Roussel Uclaf, priority 1996, dated 1998)
